Earlier results as cited in paper PMC9884426, “A phase 1 clinical trial of the repurposable acetyllysine mimetic, n-methyl-2-pyrrolidone (NMP), in relapsed or refractory multiple myeloma” (Clinical Epigenetics, 2023).

Parameters: method as in PMID 9029058
Details: human, cited from earlier work; for elimination half-life: NMP metabolites; for amount found in urine: after a single 100 mg oral dose of NMP

SMILES	elimination half-life	amount found in urine
CN1C(=O)CC(O)C1=O (centres unmarked) [2-HMSI, 2-hydroxy-N-methylsuccinimide]	17 h	20%
CN1C(=O)CCC1O (centres unmarked) [5-HNMP, 5-hydroxy-N-methyl-2-pyrrolidone]		44%
CN1C(=O)CCC1=O [MSI, N-methylsuccinimide]	8 h	0.4%
